Data on nine compounds can be found in patent US20200277278A1, “Deuterium Atom-Substituted Indole Formamide Derivative, Preparation Method Therefor, and Medical Applications Thereof” (Jiangsu Hengrui Medicine Co., Ltd., priority 2017, published 2020).

A word on the EC50: it is the concentration needed to bring the measured effect to its halfway point. A high value points to a less potent agent. In general, Emax refers to the maximal effect, on the per cent scale that the assay sets. As a reminder, the AUC is the area under the concentration-time curve, a measure of exposure. In general, half-life refers to the time in which the quantity being followed falls by half. The MRT is the average time that molecules of a dose stay in the body.

Like-named read-outs stand apart in the source and are kept apart here.

The subject of one data set is IL-17A. Put plainly: IL-17A enzyme-linked immune quantitative assay in cytostim-activated human PBMC. As to conditions: 72 h, 3 days. It counts as cell-based. Here is the method: Frozen human peripheral blood mononuclear cells (PBMC) were rapidly resuscitated in pre-warmed lymphocyte culture medium, and centrifuged at 1000 rpm for 10 min. The cell culture supernatant was removed. The cells were gently suspended in TexMACS medium and counted. The T cell activation reagent cytostim (10 μl/ml) was added in proportion to the cell suspension. Then, the cells were seeded in a 96-well cell culture plate at a density of 1×10^5 peripheral blood mononuclear cells/well. The test compounds were diluted in gradient with TexMACS medium, and added respectively to the test wells, with 2-3 parallel wells per group. A negative control well containing only cells without cytostim was provided to obtain the background reading. The cell culture plate was placed in a incubator at 5% carbon dioxide, 37° C. to incubate for 3 days. The cell culture supernatant was collected 3 days after drug treatment, and centrifuged to remove the suspension. Then, IL-17A in the supernatant was quantified with IL-17A enzyme-linked immunosorbent kit. EC50 values of the test compounds were calculated with GraphPad Prism 6.0.

Another data set addresses T1, RORγ LBD (Homo sapiens, UniProt P51449).
T1 construct: RORγ LBD (AB Vector); purchased AB Vector
T1 sequence (P51449 269-508 limits assumed): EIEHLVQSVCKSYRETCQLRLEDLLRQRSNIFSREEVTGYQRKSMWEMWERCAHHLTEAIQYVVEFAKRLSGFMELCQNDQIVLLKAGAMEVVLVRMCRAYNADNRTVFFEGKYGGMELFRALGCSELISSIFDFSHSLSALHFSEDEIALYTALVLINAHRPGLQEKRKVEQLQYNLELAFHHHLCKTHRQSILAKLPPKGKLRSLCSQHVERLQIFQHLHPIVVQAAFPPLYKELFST
The data set can be described thus: LanthaScreen TR-FRET RORγ co-activation system, effect on in vitro activity of RORγ. The class given is biochemical. Here is the method:
A complete buffer D (complete TR-FRET Coregulator) (Life Technologies) was formulated first, containing a final concentration of 5 mM DTT. The final concentration of DMSO was 2%. The test compound was serially diluted to 2× final concentration in the complete buffer D containing 2% of DMSO, and the maximum dose was 60 μm. The test compound was added to the test wells of a 384-well plate (PerkinElmer) in 10 μl/well. Two parallel control wells were set up for each test compound at the same concentration. 4×RORγ LBD (AB Vector) was formulated. RORγ LBD was diluted with the complete buffer D to a concentration of 1 ng/μL, and added to the test wells of the 384-well plate in 5 µl/well. The negative control well was 5 μL of complete buffer D without RORγ LBD. A mixed solution comprising 0.6 μM of fluorescein-D22 (4×) and 8 nM of terbium (Tb)-labeled anti-GST antibody (4×) (Life Technologies) was formulated with the complete buffer D, and 5 μL of the mixed solution was added to the 384-well plate. The total reaction system was 20 μL. The 384-well plate was gently shaken on a shaker, and incubated at room temperature in the dark for 2-4 hours.
Fluorescence readings were determined with Tecan Infinite M1000. The logarithmic curve of the ratio of the emission wavelength of 520 nm/495 nm to the concentration of the compound was plotted by GraphPad Prism 6.0 software. EC50 value of the test compound was calculated.
Background: TR-FRET usually uses a lanthanide donor and a delayed reading to cut background.

The subject of another data set is MC38 colorectal tumor. The data set can be described thus: Efficacy in isotype MC38 colorectal tumor mice model. It counts as in vivo, C57BL/6 mice. As for the experimental part: Female C57BL/6 mice (20-25 gram, 7-9 weeks old) were used in the experiment. In vivo antitumor activity of the compound of Example 1 administered alone or the compound of Example 1 administered in combination with anti-mouse PD-1 antibody was evaluated by detecting the growth of isotype MC38 colorectal tumor in inbred C57BL/6 mice. 500,000 (5×10^5) MC38 cells were implanted subcutaneously in the right abdomen of each mouse. When the tumor grew to 40-80 mm^3 (on Day 6), the mice were grouped randomly into the above four groups. In Group III and IV, the mice were administered the compound of Example 1 (0.5 mg/kg) once a day for 20 consecutive days. During the treatment experiment in Group II and IV, the anti-mouse PD-1 (CD279) antibody (BioXcell) (5 mg/kg) was intraperitoneally injected (i.p.) to the mice bearing MC38 tumor on Day 6, 9, 12 and 15, respectively. […]
The tumor volume was measured with a caliper in three dimensions, and then calculated according to the following formula: tumor volume (mm^3)=1×w×h×0.5236, wherein 1 represents the length of the tumor, w represents the width of the tumor, and h represents the height of the tumor, in millimeters. […]

Data set [1] is described as follows: Pharmacokinetics assay in mice. It counts as in vivo. As to conditions: female, mouse, po, C57 mice, intragastric, 2 mg/kg; for Vd/F: read-out: Apparent distribution volume Vz/F; for AUC: read-out: Area under curve AUC; for CL/F: read-out: Clearance CLz/F; for half-life: read-out: Half-life T½ (converted); for Cmax: read-out: Plasma concentration Cmax; for MRT: read-out: Residence time MRT. Here is the method:
Mice were used as test animals. […] The pharmacokinetic behavior of the compounds of the present invention was studied and evaluated in mice. A group of eighteen C57 mice (female, equally divided into two groups) were purchased from Shanghai Jiesijie Laboratory Animal Co., LTD, with Certificate No.: SCXK (Shanghai) 2013-0006. A certain amount of the test compound was weighed, and added with 5% by volume of DMSO, 5% by volume of tween 80 and 90% by volume of normal saline to prepare a 0.1 mg/mL colorless, clear and transparent solution. […] The samples were stored in heparinized tubes, and centrifuged for 10 minutes at 3500 rpm to separate the blood plasma. The plasma samples were stored at −20° C. The content of the test compound in the plasma of mice after intragastrical administration of the test compound at different concentrations was determined: 25 μL of mouse plasma at each time after administration was taken, added with 80 μL of the internal standard solution of camptothecin (100 ng/mL) and 200 μL of acetonitrile, vortex-mixed for 5 minutes, and centrifuged for 10 minutes (3600 rpm). 1 μL of the supernatant was taken from the plasma samples for LC/MS/MS analysis.

Turning to `[2H]C([2H])(O)Cn1c(Cc2ccc(Cl)cc2C(F)(F)F)cc2cc(C(=O)N[C@@H](CO)c3ccc(S(=O)(=O)CC)cc3)ccc21` [Example 5, 2-[[4-Chloro-2-(trifluoromethyl)phenyl]methyl]-1-(2,2-dideutero-2-hydroxy-ethyl)-N-[(1R)-1-(4-ethylsulfonylphenyl)-2-hydroxy-ethyl]indole-5-carboxamide], the EC50 was found to be 32 nM in the data set with IL-17A and 9 nM at RORγ LBD. Moreover, the Emax with IL-17A came to 82%; at RORγ LBD, 73%.

For `[2H]C([2H])(C)n1c(Cc2ccc(Cl)cc2C(F)(F)F)cc2cc(C(=O)N[C@@H](CO)c3ccc(S(=O)(=O)CC)cc3)ccc21` [Example 11, 2-[[4-Chloro-2-(trifluoromethyl)phenyl]methyl]-1-(1,1-dideuteroethyl)-N-[(1R)-1-(4-ethylsulfonylphenyl)-2-hydroxyethyl]indole-5-carboxamide], at RORγ LBD, the EC50 amounted to 21 nM and the Emax was determined as 84%.

Turning to `[2H]C([2H])(F)Cn1c(Cc2ccc(Cl)cc2C(F)(F)F)cc2cc(C(=O)N[C@@H](CO)c3ccc(S(=O)(=O)CC)cc3)ccc21` (single isomer, unassigned) [Example 1], in the data set on IL-17A, the half-maximal effective concentration (EC50) was found to be 22 nM and the maximal response (Emax) worked out at 88%. Moreover, the “Tumor growth inhibition rate TGI” value with MC38 colorectal tumor (0.5 mg/kg oral in combination with anti-mouse PD-1 monoclonal antibody 5 mg/kg i.p.) is recorded as 65.5%. In addition, the “Tumor growth inhibition rate TGI” value in the data set with MC38 colorectal tumor (administered alone, 0.5 mg/kg oral, once a day for 20 days) is listed as 22.5%. In data set [1] (plasma), the Vd/F came out at 0.648 L/kg, the AUC was 40400 ng·h/mL, the CL/F is 0.82 mL/min/kg and the half-life is 545 min. For the same compound, in data set [1] (plasma), the Cmax was 3710 ng/mL and the MRT stood at 12 h.

On RORγ LBD, `[2H]C([2H])(c1cc2cc(C(=O)N[C@@H](CO)c3ccc(S(=O)(=O)CC)cc3)ccc2n1C1CC1)n1nccc1C(F)(F)F` [Example 2, 1-Cyclopropyl-2-[dideutero-[5-(trifluoromethyl)pyrazol-1-yl]methyl]-N-[(1R)-1-(4-ethylsulfonylphenyl)-2-hydroxy-ethyl]indole-5-carboxamide] had a half-maximal effective concentration (EC50) of 16 nM and a maximal effect (Emax) of 89%.

In the data set with IL-17A, `[2H]C([2H])([2H])C([2H])([2H])S(=O)(=O)c1ccc([C@H](CO)NC(=O)c2ccc3c(c2)cc(Cc2ccc(Cl)cc2C(F)(F)F)n3CCF)cc1` (single isomer, unassigned) [Example 6] gave a concentration giving a half-maximal response (EC50) of 37 nM and an Emax of 100%. Also, in data set [1] (in vivo), the Vd/F amounted to 0.575 L/kg, the AUC was 31600 ng·h/mL, the CL/F was 1.06 mL/min/kg and the half-life was 377 min. In addition, in data set [1] (in vivo), the Cmax turned out to be 2730 ng/mL and the MRT is 9.13 h.

For `[2H]C([2H])(F)Cn1c(Cc2ccc(Cl)cc2C(F)(F)F)cc2cc(C(=O)N[C@@H](CO)c3ccc(S(=O)(=O)CC)cn3)ccc21` [Example 13, 2-[[4-Chloro-2-(trifluoromethyl)phenyl]methyl]-1-(2,2-dideutero-2-fluoro-ethyl)-N-[(1R)-1-(5-ethylsulfonyl-2-pyridinyl)-2-hydroxy-ethyl]indole-5-carboxamide], in the data set on IL-17A, the EC50 turned out to be 22 nM and the maximal response (Emax) worked out at 88%. At RORγ LBD, this compound displayed a 50% effective concentration (EC50) of 9 nM and a maximum response (Emax) of 77%.

At RORγ LBD, `[2H]C([2H])([2H])OC[C@H](NC(=O)c1ccc2c(c1)cc(Cc1ccc(Cl)cc1C(F)(F)F)n2CCF)c1ccc(S(=O)(=O)CC)cc1` [Example 8, 2-[[4-Chloro-2-(trifluoromethyl)phenyl]methyl]-N-[(1R)-1-(4-ethylsulfonylphenyl)-2-(trideuteromethoxy)ethyl]-1-(2-fluoroethyl)indole-5-carboxamide] showed an EC50 of 34 nM and a maximal effect (Emax) of 85%.

On to `[2H]C([2H])(NC(=O)c1ccc2c(c1)cc(Cc1ccccc1C(F)(F)F)n2C1CC1)c1ccc(S(=O)(=O)CC)cc1` [Example 4, 1-Cyclopropyl-N-[dideutero-(4-ethylsulfonylphenyl)methyl]-2-[[2-(trifluoromethyl)phenyl]methyl]indole-5-carboxamide], for which, in the data set with IL-17A, a half-maximal effect (EC50) was put at 20 nM and the Emax was found to be 79%. Moreover, on RORγ LBD, the response was half-maximal at 5 nM (EC50) and the Emax is 98%.

In the data set with IL-17A, `[2H]C([2H])(NC(=O)c1ccc2c(c1)cc(Cc1ccc(Cl)cc1C(F)(F)F)n2CCF)c1ccc(S(=O)(=O)CC)cc1` [Example 3, 2-[[4-Chloro-2-(trifluoromethyl)phenyl]methyl]-N-[dideutero-(4-ethylsulfonylphenyl)methyl]-1-(2-fluoroethyl)indole-5-carboxamide] yielded an EC50 of 103 nM and an Emax of 102%. Further, on RORγ LBD, the EC50 was found to be 17 nM and the Emax was found to be 98%.
